# Like-named read-outs stand apart in the source and are kept apart here.
# Columns and labels:
# [1] = system: relapsed or refractory multiple myeloma (RRMM); assay: Clinical antitumor activity (IMWG response, serum free light chain); type: in vivo, human
# Experimental: Response assessment included SPEP/immunofixation, UPEP/immunofixation (in patients with a baseline urine M protein ≥200 mg/24 hour or for assessment of VGPR or better), SFLC, quantitative immunoglobulins, and plasmacytoma evaluation by imaging (at baseline, every 4 cycles, and at additional time points if clinically indicated). These samples were collected for local assessment. In addition, blood were analyzed in the central laboratory using a modified SPEP for patients with IgG myeloma.
# The determination of antitumor activity were based on response assessments made according to the 2016 IMWG Criteria (Kumar et al., Lancet Oncol 17(8): e328-46, 2016) and treatment decisions by the investigator were based on these assessments. Clinical response of sCR, CR, VGPR, PR, SD, and PD were determined at each assessment based on local laboratory (and the modified SPEP run by the central laboratory for patients with IgG MM), radiological, and clinical evaluations. Progressive disease was based on IMWG 2016 criteria and/or clinical disease progression per investigator. All IMWG responses were confirmed responses. When applicable, determination of immunophenotypic CR, MRD status, and minimal response were made per the IMWG 2016 criteria.
# Kappa and lambda free light chains were quantified in serum of patients as surrogate markers of antitumor activity.
# A patient was determined to have an OR if, based on the 2016 IMWG uniform response criteria, they achieve a sCR, CR, VGPR, or a PR. The ORR is defined as the proportion of patients with an OR per investigator. Patients whose disease response could not be evaluated per the 2016 IMWG uniform response criteria were scored as Not Evaluable for calculating the ORR.
# [2] = system: MM1R myeloma target cells; assay: PBMC-mediated MM1R target cell killing, second experiment (PBMC pretreated 5 days, 0.5 μM pomalidomide); type: cell-based; conditions: combined with Pomalidomide, benchmarked against daratumumab, N=2
# Experimental: Experiments were performed to test whether SEA-BCMA combines effectively with pomalidomide in vitro by combining PBMC effector cells with MM1R target cells treated with both pomalidomide and SEA-BCMA or antibody controls. The first experiment (FIG. 12A) benchmarks against MM standard of care elotuzumab and nonfucosylated parent BCMA antibody. The second experiment (FIG. 12B) benchmarks against MM standard of care daratumumab. MM1R target cells express 15,000 copies of BCMA, 12,000 copies of CS1 (elotuzumab target), and 36,000 copies of CD38 (daratumumab target).
# In the second experiment (FIG. 12B), normal donor PBMCs of the FcγRIII V/F genotype were treated with or without 0.5 μM pomalidomide (APEx Bio, cat #A4211) for 5 days. The resulting PBMCs were then washed and mixed with CFSE (Invitrogen cat #V12883) labeled MM1R myeloma target cells at an effector-to-target cell ratio of 10:1. The mixture was then treated with a dose range of the following antibodies: SEA-BCMA, daratumumab, or non-binding hIgG1k antibody control (Sigma cat #15154) with or without 0.5 μM pomalidomide (APEx Bio, cat #A4211) and incubated overnight. Percentage live MM1R cells were then determined using the viability dye 7-AAD (BD Biosciences, cat #559925) by flow cytometry.
# Molp-8 MM target cells = assay: ADCC 51Cr release assay with NK effector cells; type: cell-based; conditions: Molp-8, with vs without 0.2 μM Nirogacestat, NK cells 10:1, 4 h
# Experimental: Whether the enhanced FcγRIII signaling translated to increased lysis of MM target cells by SEA-BCMA was determined. Molp-8 MM target cells were incubated with and without 0.2 μM Nirogacestat (purchased from SelleckChem) for 24 hrs. Cells were then Na2 [^51Cr] O4 labeled and added to titrations of SEA-BCMA, or isotype antibody control. Effector cells, NK cells enriched from normal donor PBMC, were added at an effector-to-target cell ratio of 10:1 (50,000:5000). Donor NK cells were of the high affinity FcγRIII V/V genotype. The combination of antibodies, NK cells and target cells were incubated for 4 h at 37° C. with and without Nirogacestat. The radioactivity released into the culture supernatant of lysed target cells was then measured and the percent specific cell lysis calculated. […] This is the primary of mechanism of action of SEA-BCMA and translates to specific enhanced anti-MM lysis. It is expected that this will translate to improvements in anti-MM activity in the clinic when SEA-BCMA is combined with GSIs.
# MOLP-8 luciferase cells = assay: Disseminated MM mouse tumor xenograft (luminescence); type: in vivo, SCID mice; conditions: SEA-BCMA 3 mg/kg once IP combined with daratumumab 1 mg/kg weekly 5x, N=5
# Experimental: Experiments were performed to test whether SEA-BCMA can combine effectively with daratumumab in a disseminated MM mouse tumor xenograft. MOLP-8 luciferase cells were injected IV into SCID animals and allowed to home to the bone marrow. Molp-8 cells express 2000 copies of BCMA and 323,000 copies of CD38 (daratumumab target). When sufficient luminescence was observed, animals were dosed once IP with SEA-BCMA, or SEA non targeted control at 3 mg/kg. Daratumumab was dosed weekly 5× at 1 mg/kg. Median luminescence plotted, N=5. The combination of SEA-BCMA and daratumumab yielded complete remissions in 4 of 5 animals.
# [3] = Antitherapeutic antibody (ATA) assessment in patient serum; type: in vivo, human; conditions: all samples tested
# Source text: A qualified electrochemiluminescence assay were used to assess ATA.
# [4] = combination with dexamethasone, SEA-BCMA Day 1 and 15, dexamethasone Day 1, 8, 15, 22 of 28-day cycle
# [5] = intensive dosing: 1600 mg q1wk for 8 doses, then once every two weeks
# [6] = among 20 total patients treated
substance,measurement,setting,value
SEA-BCMA: non-fucosylated monoclonal anti-BCMA antibody having heavy chain SEQ ID NO: 13 and light chain SEQ ID NO: 15,response by dose level,[1]; 1600 mg per dose once every 2 weeks vs 100-800 mg,highest overall confirmed response rate
same,response assessment,"[1]; Patient A, 1600 mg every two weeks, 7 prior lines",very good partial response (VGPR)
same,time to which low level of sFLC was maintained,"[1]; Patient A, 1600 mg every two weeks, after the first dose",≥ 40 days
same,response,"[1]; all dose levels (100-1600 mg), after a minimum of 3 cycles of treatment",stable disease was observed
same,patients with confirmed very good partial response (VGPR),"[1]; among 3 response evaluable patients, 1600 mg",1 patient
same,response,[1]; [4],Confirmed responses were also observed
same,response,[1]; [5],Confirmed responses were also observed
same,decrease of serum free light chain (sFLC) level,"[1]; patient (Patient A), one week after first 1600 mg dose",about 90%
same,response,"[1]; patient, 200 mg escalated to 1600 mg, 8 prior lines",maintaining stable disease even 10 months after commencement of treatment
same,safety,1600 mg per dose once every 2 weeks,found to be safe
same,safety profile,"20 patients, 100-1600 mg",well-tolerated with no severe adverse effects
same,adverse event,"Patient A, 1600 mg every two weeks, second cycle",Grade 2 maculopapular rash
same,dose-limiting toxicity (DLT) (Grade 3 infusion-related reactions),[6],1 case
same,total serious infusion-related reactions,[6],2
same,safety,[4],found to be safe
same,delayed-onset infusion-related reactions (IRRs),dose escalation cohort,no instances of delayed-onset infusion-related reactions
same,maximum tolerated dose (MTD),"human, in vivo",completed without exceeding MTD
same,safety,[5],intensive dosing was safe
same,safety and tolerability,"patient, 200 mg escalated to 1600 mg every two weeks, cycles 1-10",tolerated the therapy well without any adverse effects related to SEA-BCMA
same,MM1R target cell killing,[2],greater MM1R target cell killing
same,ADCC (specific cell lysis),Molp-8 MM target cells,Increased ADCC
same,complete remissions,MOLP-8 luciferase cells,4 of 5
same,anti-SEA-BCMA antibodies,[3],No anti-SEA-BCMA antibodies were found

# Source: patent publication US20230118517A1, “METHODS OF TREATING MULTIPLE MYELOMA” (Seagen Inc., priority 2020, published 2023)
